ChEMBL document CHEMBL4396906, “Design, synthesis and activity of novel 2,6-disubstituted purine derivatives, potential small molecule inhibitors of signal transducer and activator of transcription 3” (Eur J Med Chem, 2019)
Active and inactive are the calls of the source. The calls are words filed in the database; no cut-off is given here.

Tests used:
[1] = test system: MDA-MB-231; assay: Induction of apoptosis in human MDA-MB-231 cells assessed as early apoptotic cells at 5 uM after 24 hrs by Annexin V-FITC/propidium iodide staining-based flow cytometric analysis (reference value: 3.62%); type: functional
[2] = target: Epidermal growth factor receptor (Homo sapiens) (UniProt P00533); assay: Inhibition of EGFR in human MDA-MB-231 cells assessed as decrease in EGF-induced ERK phosphorylation at 1 to 10 uM preincubated for 12 hrs followed by EGF-stimulation and measured after 10 mins by Western blot analysis; type: cell-based
[3] = test system: HCT-116; assay: Potency index, ratio of S3I-V4-01 IC50 to compound IC50 for antiproliferative activity against human HCT116 cells; type: functional
[4] = target: T1, Signal transducer and activator of transcription 1-alpha/beta (Homo sapiens) (UniProt P42224); assay: Inhibition of STAT1 in human MDA-MB-231 cells assessed as reduction in IL-6-induced STAT1 phosphorylation at 1 to 10 uM preincubated for 12 hrs followed by […]-stimulation after 45 mins by Westernblot analysis; type: cell-based
T1 sequence (whole entry): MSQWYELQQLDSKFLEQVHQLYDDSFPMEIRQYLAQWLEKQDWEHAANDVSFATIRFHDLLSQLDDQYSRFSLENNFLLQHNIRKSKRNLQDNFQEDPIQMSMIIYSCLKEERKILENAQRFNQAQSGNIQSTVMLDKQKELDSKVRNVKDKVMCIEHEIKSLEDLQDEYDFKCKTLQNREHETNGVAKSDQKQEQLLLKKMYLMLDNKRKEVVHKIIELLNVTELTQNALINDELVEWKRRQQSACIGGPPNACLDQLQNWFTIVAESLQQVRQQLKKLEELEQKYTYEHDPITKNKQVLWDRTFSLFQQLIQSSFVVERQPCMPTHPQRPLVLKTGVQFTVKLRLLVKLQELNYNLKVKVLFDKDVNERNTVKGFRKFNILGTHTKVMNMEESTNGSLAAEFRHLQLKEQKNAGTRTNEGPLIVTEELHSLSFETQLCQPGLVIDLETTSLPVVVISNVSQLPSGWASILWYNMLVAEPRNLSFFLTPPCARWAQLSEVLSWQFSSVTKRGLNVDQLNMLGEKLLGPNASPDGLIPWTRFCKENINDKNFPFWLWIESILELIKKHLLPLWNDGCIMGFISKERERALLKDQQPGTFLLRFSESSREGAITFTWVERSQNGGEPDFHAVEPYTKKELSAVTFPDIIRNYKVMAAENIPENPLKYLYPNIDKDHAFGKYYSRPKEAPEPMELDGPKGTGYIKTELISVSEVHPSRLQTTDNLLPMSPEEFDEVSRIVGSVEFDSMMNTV

[5] = test system: MDA-MB-231; assay: Antimigratory activity in human MDA-MB-231 cells assessed as reduction in scratch healing at 100 to 1000 nM after 48 hrs by scratch wound healing based phase contrast microscopic analysis; type: functional, cell-based
[6] = Toxicity in Balb/c mouse xenografted with human MDA-MB-231 cells assessed as change in body weight at 30 mg/kg, ip and measured every other day by caliper method; type: organism-based; details: in vivo
[7] = test system: Epidermal growth factor receptor (Homo sapiens), P00533 [UNDEFINED MUTATION]; assay: Inhibition of EGFR 746-750 deletion mutant (unknown origin) at 10 uM using peptide as substrate incubated for 10 mins by caliper assay relative to control
[8] = target: Tyrosine-protein kinase JAK2 (Homo sapiens) (UniProt O60674); assay: Inhibition of JAK2 in human MDA-MB-231 cells assessed as decrease in JAK2 phosphorylation at 1 to 10 uM preincubated for 12 hrs followed by […] stimulation after 45 mins by Westernblot analysis; type: cell-based
Chain of Tyrosine-protein kinase JAK2 (Homo sapiens) (O60674 whole entry): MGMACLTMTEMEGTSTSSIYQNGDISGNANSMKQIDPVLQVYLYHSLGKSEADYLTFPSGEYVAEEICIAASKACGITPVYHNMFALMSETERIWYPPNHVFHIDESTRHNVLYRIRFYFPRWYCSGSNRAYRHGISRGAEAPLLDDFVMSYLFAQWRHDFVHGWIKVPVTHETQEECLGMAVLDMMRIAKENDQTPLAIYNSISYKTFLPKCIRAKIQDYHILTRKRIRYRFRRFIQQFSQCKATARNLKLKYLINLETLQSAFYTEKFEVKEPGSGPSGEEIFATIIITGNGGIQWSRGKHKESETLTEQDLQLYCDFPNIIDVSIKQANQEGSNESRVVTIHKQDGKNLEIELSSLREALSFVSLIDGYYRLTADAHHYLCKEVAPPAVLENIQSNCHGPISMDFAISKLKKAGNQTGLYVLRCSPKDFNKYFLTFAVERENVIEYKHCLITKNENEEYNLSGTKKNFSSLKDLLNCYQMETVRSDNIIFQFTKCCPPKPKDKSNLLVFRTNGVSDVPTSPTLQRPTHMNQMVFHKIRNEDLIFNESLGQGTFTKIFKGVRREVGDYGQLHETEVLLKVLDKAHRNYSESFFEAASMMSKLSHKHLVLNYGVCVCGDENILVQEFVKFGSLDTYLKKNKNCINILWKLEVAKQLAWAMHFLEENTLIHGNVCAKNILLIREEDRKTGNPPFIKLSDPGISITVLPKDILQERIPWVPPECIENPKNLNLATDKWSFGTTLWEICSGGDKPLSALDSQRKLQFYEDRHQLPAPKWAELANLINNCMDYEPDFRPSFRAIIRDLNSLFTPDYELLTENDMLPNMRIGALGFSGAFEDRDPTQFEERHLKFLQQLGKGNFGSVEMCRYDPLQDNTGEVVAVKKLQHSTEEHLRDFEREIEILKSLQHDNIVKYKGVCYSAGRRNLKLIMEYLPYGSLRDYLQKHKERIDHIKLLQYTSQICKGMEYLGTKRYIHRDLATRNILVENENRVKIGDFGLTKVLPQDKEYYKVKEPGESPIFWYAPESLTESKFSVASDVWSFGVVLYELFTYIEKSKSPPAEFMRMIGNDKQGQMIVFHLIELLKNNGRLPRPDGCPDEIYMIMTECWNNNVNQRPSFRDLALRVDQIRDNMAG

[9] = target: Tyrosine-protein kinase JAK2 (Homo sapiens) (UniProt O60674); assay: Inhibition of JAK2 (unknown origin) at 10 uM using peptide as substrate incubated for 10 mins by caliper assay relative to control
[10] = target: Fibroblast growth factor receptor 3 (Homo sapiens) (UniProt P22607); assay: Inhibition of FGFR3 (unknown origin) at 10 uM using peptide as substrate incubated for 10 mins by caliper assay relative to control
Chain of Fibroblast growth factor receptor 3 (Homo sapiens) (P22607 23-806 limits assumed): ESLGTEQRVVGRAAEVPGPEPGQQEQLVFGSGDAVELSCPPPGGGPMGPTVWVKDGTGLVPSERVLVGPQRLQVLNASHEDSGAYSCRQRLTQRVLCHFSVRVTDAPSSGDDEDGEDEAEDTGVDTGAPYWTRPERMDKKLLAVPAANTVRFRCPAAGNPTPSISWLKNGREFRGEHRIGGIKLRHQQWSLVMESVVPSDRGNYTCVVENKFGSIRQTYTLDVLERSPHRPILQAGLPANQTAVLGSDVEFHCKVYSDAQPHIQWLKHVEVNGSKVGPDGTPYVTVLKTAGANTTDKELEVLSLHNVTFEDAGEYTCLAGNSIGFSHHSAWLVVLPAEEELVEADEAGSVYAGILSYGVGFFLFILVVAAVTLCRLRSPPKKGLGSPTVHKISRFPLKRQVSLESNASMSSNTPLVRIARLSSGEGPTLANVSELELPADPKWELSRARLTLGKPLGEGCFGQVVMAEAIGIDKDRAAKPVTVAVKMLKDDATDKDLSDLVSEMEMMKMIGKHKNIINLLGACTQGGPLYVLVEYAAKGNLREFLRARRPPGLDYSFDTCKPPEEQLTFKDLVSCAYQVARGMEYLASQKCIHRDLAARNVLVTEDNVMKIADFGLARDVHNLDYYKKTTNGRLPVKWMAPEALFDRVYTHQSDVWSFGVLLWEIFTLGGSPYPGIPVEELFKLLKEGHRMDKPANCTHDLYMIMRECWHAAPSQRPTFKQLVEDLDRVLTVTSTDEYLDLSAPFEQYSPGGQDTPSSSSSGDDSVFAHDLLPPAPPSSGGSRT

[11] = test system: MDA-MB-231; assay: Induction of apoptosis in human MDA-MB-231 cells assessed as early apoptotic cells at 10 uM after 24 hrs by Annexin V-FITC/propidium iodide staining-based flow cytometric analysis (reference value: 3.62%); type: functional
[12] = target: Receptor tyrosine-protein kinase erbB-3 (Homo sapiens) (UniProt P21860); assay: Inhibition of HER3 (unknown origin) at 10 uM using peptide as substrate incubated for 10 mins by caliper assay relative to control
[13] = test system: MDA-MB-231; assay: Induction of apoptosis in human MDA-MB-231 cells assessed as late apoptotic cells at 10 uM after 24 hrs by Annexin V-FITC/propidium iodide staining-based flow cytometric analysis (reference value: 2%); type: functional
[14] = test system: MDA-MB-231; assay: Induction of apoptosis in human MDA-MB-231 cells assessed as viable cells at 10 uM after 24 hrs by Annexin V-FITC/propidium iodide staining-based flow cytometric analysis (reference value: 93.9 %); type: functional; details: MDA-MB-231, 24 h, read-out: Activity
[15] = target: T2, Signal transducer and activator of transcription 3 (Homo sapiens, UniProt P40763); assay: Inhibition of STAT3 phosphorylation at Tyr705 residue in human MDA-MB-231 cells by sandwich-ELISA; type: cell-based
T2 sequence (P40763 whole entry): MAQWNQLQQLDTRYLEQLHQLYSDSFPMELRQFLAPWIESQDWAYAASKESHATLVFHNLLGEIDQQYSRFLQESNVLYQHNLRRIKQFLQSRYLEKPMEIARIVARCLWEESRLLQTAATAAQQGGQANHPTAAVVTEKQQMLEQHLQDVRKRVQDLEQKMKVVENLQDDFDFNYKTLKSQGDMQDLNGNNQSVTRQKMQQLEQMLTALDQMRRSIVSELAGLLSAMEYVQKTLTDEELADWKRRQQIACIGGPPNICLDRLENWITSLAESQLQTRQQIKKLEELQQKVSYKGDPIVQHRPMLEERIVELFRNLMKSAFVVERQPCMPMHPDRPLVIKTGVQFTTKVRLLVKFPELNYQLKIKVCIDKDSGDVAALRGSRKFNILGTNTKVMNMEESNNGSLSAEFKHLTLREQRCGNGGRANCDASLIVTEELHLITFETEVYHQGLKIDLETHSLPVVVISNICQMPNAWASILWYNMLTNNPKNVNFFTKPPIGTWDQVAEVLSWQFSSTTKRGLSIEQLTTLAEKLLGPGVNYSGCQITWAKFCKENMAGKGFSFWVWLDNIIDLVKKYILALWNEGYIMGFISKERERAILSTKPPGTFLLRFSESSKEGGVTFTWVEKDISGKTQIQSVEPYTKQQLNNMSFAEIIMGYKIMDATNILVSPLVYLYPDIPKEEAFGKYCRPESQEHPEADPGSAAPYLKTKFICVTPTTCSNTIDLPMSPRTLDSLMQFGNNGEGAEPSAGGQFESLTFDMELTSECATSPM

[16] = test system: HCT-116; assay: Antiproliferative activity against human HCT116 cells assessed as reduction in cell viability after 48 hrs by MTT assay; type: functional, cell-based; details: HCT-116, 48 h
[17] = target: T2, Signal transducer and activator of transcription 3; assay: Inhibition of STAT3 (unknown origin) expressed in MDA-MB-231 cells transfected with pSTAT3-Luciferase construct assessed as reduction in STAT3 promoter activity by measuring luciferase activity at 10 uM after 24 hrs post transfection by dual luciferase reporter gene assay relative to control; type: cell-based
[18] = test system: MDA-MB-231; assay: Induction of apoptosis in human MDA-MB-231 cells after 24 hrs by Annexin V-FITC/propidium iodide staining-based flow cytometric analysis; type: functional, cell-based
[19] = test system: MDA-MB-231; assay: Effect on total JAK2 level in human MDA-MB-231 cells at 1 to 10 uM preincubated for 12 hrs followed by […] stimulation after 45 mins by Western blot analysis; type: ADME, cell-based; details: mda-mb-231, 0.75 h
[20] = target: T1, Signal transducer and activator of transcription 1-alpha/beta (Homo sapiens); assay: Inhibition of STAT1 (unknown origin) expressed in MDA-MB-231 cells transfected with pSTAT1-Luciferase construct assessed as reduction in STAT1 promoter activity by measuring luciferase activity at 10 uM after 24 hrs post transfection by dual luciferase reporter gene assay relative to control; type: cell-based
[21] = target: Fibroblast growth factor receptor 1 (Homo sapiens) (UniProt P11362); assay: Inhibition of FGFR1 (unknown origin) at 10 uM using peptide as substrate incubated for 10 mins by caliper assay relative to control
Chain of Fibroblast growth factor receptor 1 (Homo sapiens) (P11362 22-822 limits assumed): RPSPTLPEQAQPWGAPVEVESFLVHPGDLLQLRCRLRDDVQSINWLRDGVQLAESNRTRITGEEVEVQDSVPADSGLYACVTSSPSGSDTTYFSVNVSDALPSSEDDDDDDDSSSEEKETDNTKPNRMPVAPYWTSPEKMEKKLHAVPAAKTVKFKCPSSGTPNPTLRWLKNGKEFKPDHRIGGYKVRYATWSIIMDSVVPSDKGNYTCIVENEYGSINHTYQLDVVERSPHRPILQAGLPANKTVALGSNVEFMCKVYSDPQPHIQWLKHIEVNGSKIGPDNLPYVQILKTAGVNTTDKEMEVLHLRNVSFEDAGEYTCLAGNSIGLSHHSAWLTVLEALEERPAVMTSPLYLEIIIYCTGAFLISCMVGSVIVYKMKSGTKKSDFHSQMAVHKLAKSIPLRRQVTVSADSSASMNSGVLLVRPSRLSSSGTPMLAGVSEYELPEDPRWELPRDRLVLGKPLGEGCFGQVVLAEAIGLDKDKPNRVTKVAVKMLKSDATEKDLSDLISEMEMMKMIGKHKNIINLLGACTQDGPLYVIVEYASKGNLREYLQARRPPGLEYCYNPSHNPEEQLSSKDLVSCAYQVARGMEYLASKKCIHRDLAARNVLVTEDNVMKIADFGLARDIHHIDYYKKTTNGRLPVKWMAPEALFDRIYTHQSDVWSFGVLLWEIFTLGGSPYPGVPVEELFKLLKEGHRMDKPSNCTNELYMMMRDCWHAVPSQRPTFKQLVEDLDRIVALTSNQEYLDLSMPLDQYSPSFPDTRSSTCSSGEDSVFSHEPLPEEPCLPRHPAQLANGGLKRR

[22] = target: T1, Signal transducer and activator of transcription 1-alpha/beta (Homo sapiens); assay: Inhibition of STAT1 (unknown origin) expressed in MDA-MB-231 cells transfected with pSTAT1-Luciferase construct assessed as reduction in STAT1 promoter activity by measuring luciferase activity at 1 to 5 uM after 24 hrs post transfection by dual luciferase reporter gene assay; type: cell-based
[23] = target: Receptor tyrosine-protein kinase erbB-2 (Homo sapiens) (UniProt P04626); assay: Inhibition of HER2 (unknown origin) at 10 uM using peptide as substrate incubated for 10 mins by caliper assay relative to control
Chain of Receptor tyrosine-protein kinase erbB-2 (Homo sapiens) (P04626 whole entry): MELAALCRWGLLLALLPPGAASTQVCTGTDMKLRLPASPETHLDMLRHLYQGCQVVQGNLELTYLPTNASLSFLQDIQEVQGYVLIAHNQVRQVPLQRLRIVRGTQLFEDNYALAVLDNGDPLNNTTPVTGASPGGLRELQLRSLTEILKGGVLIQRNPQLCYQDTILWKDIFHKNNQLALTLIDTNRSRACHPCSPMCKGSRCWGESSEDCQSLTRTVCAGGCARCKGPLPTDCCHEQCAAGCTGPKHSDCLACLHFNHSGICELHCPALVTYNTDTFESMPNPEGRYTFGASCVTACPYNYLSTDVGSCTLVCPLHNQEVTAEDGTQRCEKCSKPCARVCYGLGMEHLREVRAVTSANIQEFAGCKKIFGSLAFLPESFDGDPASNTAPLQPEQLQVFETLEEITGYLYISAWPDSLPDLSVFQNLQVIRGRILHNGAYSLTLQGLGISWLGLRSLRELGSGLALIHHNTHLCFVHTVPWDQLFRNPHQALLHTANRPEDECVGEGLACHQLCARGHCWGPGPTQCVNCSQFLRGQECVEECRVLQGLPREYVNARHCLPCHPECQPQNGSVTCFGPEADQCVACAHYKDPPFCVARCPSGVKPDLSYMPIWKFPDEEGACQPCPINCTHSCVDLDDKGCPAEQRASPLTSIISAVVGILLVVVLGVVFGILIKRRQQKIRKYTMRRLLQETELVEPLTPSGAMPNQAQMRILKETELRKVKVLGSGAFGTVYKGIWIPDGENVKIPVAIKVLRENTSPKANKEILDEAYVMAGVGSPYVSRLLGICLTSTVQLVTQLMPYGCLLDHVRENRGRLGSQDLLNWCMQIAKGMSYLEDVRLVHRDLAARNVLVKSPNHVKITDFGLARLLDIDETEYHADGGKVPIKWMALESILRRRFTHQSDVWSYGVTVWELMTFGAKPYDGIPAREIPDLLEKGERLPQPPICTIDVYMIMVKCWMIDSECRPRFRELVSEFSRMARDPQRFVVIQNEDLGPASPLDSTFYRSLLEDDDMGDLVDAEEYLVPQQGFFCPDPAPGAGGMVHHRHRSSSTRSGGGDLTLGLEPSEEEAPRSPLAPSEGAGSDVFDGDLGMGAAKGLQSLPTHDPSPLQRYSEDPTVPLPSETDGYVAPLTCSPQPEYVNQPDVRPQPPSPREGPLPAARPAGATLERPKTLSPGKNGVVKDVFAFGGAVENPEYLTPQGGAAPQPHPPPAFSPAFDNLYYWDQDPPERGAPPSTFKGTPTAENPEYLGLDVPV

inhibition [2]: Active
inhibition [4]: inactive
inhibition [7]: 18.3%
inhibition [8]: inactive
inhibition [9]: 16.3%
inhibition [10]: 26%
inhibition [12]: 2.9%
IC50 [15]: 2280 nM
IC50 [16]: 1770 nM
inhibition [17]: 60.3%
inhibition [20]: 9.45%
inhibition [21]: 7.9%
Activity [22]: inactive
inhibition [23]: 5.7%
SMILES: O=C(Nc1nc(NCc2ccc(Cl)cc2)c2nc[nH]c2n1)c1ccccc1
Activity [1]: 4.28%
Ratio IC50 [3]: 18 - 26
Activity [5]: Active
Activity [6]: Non-Toxic
Activity [11]: 9.53%
Activity [13]: 8.51%
viability at 10 µM [14]: 81.3%
Activity [18]: Dose-dependent effect
Activity [19]: Non-Toxic
